Measured values reported in PubChem BioAssay (NCI).
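Test compounds were applied to cells in 96-well plates for 48 hours at 5 doses. Abbreviation: GI50, concentration required for 50% inhibition of growth. TGI marks complete inhibition of growth.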

Assays:
Test in all cases: NCI tumour cell line growth inhibition, 48 h
COLO 205 colon = system: COLO 205 colon
HOP-92 NSCLC = system: HOP-92 NSCLC
MALME-3M melanoma = system: MALME-3M melanoma
SK-MEL-2 melanoma = system: SK-MEL-2 melanoma
KM12 colon = system: KM12 colon
SF-539 CNS = system: SF-539 CNS
MCF7 breast = system: MCF7 breast
SR leukemia = system: SR leukemia
HCC-2998 colon = system: HCC-2998 colon
SK-OV-3 ovarian = system: SK-OV-3 ovarian
ACHN renal = system: ACHN renal
K-562 leukemia = system: K-562 leukemia
HT29 colon = system: HT29 colon
U251 CNS = system: U251 CNS
M14 melanoma = system: M14 melanoma
LOX IMVI melanoma = system: LOX IMVI melanoma
HCT-15 colon = system: HCT-15 colon
NCI-H460 lung = system: NCI-H460 lung
OVCAR-8 ovarian = system: OVCAR-8 ovarian
SF-268 CNS = system: SF-268 CNS
SNB-19 CNS = system: SNB-19 CNS
OVCAR-4 ovarian = system: OVCAR-4 ovarian
DU-145 prostate = system: DU-145 prostate
SK-MEL-5 melanoma = system: SK-MEL-5 melanoma
UO-31 renal = system: UO-31 renal
NCI-H23 lung = system: NCI-H23 lung
RXF 393 renal = system: RXF 393 renal
RPMI-8226 leukemia = system: RPMI-8226 leukemia
HS 578T breast = system: HS 578T breast
HCT-116 colon = system: HCT-116 colon
SN12C renal = system: SN12C renal
HOP-62 NSCLC = system: HOP-62 NSCLC
MDA-MB-231 breast = system: MDA-MB-231 breast
PC-3 prostate = system: PC-3 prostate
SF-295 CNS = system: SF-295 CNS
HL-60(TB) leukemia = system: HL-60(TB) leukemia
SNB-75 CNS = system: SNB-75 CNS
A549 NSCLC = system: A549 NSCLC
A498 renal = system: A498 renal
BT-549 breast = system: BT-549 breast
UACC-257 melanoma = system: UACC-257 melanoma
CCRF-CEM leukemia = system: CCRF-CEM leukemia
IGROV1 ovarian = system: IGROV1 ovarian
OVCAR-5 ovarian = system: OVCAR-5 ovarian
NCI/ADR-RES ovarian = system: NCI/ADR-RES ovarian
EKVX NSCLC = system: EKVX NSCLC
NCI-H226 lung = system: NCI-H226 lung
SK-MEL-28 melanoma = system: SK-MEL-28 melanoma
MDA-MB-435 = system: MDA-MB-435
OVCAR-3 ovarian = system: OVCAR-3 ovarian
SW-620 colon = system: SW-620 colon
MOLT-4 leukemia = system: MOLT-4 leukemia
NCI-H522 lung = system: NCI-H522 lung
CAKI-1 renal = system: CAKI-1 renal
TK-10 renal = system: TK-10 renal
T-47D breast = system: T-47D breast
786-0 renal = system: 786-0 renal
UACC-62 melanoma = system: UACC-62 melanoma

O=C1OC(O)[C@@H]2[C@H]1[C@H]1CC[C@@H]2O1 (stereo partly specified)
GI50 (COLO 205 colon): 1.21 µM | TGI (COLO 205 colon): 6.31 µM | GI50 (HOP-92 NSCLC): 20.3 µM | TGI (HOP-92 NSCLC): > 69.9 µM | GI50 (MALME-3M melanoma): 28.1 µM | TGI (MALME-3M melanoma): 77.3 µM | GI50 (SK-MEL-2 melanoma): 39 µM | TGI (SK-MEL-2 melanoma): > 82.4 µM | GI50 (KM12 colon): 21.5 µM | TGI (KM12 colon): 72.8 µM | GI50 (SF-539 CNS): > 100 µM | TGI (SF-539 CNS): > 100 µM | GI50 (MCF7 breast): > 100 µM | TGI (MCF7 breast): > 100 µM | GI50 (SR leukemia): > 100 µM | TGI (SR leukemia): > 100 µM | GI50 (HCC-2998 colon): 2.19 µM | TGI (HCC-2998 colon): 4.41 µM | GI50 (SK-OV-3 ovarian): > 100 µM | TGI (SK-OV-3 ovarian): > 100 µM | GI50 (ACHN renal): > 89.6 µM | TGI (ACHN renal): > 100 µM | GI50 (K-562 leukemia): > 100 µM | TGI (K-562 leukemia): > 100 µM | GI50 (HT29 colon): 4.99 µM | TGI (HT29 colon): 32.2 µM | GI50 (U251 CNS): > 100 µM | TGI (U251 CNS): > 100 µM | GI50 (M14 melanoma): 84.5 µM | TGI (M14 melanoma): > 100 µM | GI50 (LOX IMVI melanoma): > 100 µM | TGI (LOX IMVI melanoma): > 100 µM | GI50 (HCT-15 colon): > 100 µM | TGI (HCT-15 colon): > 100 µM | GI50 (NCI-H460 lung): > 100 µM | TGI (NCI-H460 lung): > 100 µM | GI50 (OVCAR-8 ovarian): > 100 µM | TGI (OVCAR-8 ovarian): > 100 µM | GI50 (SF-268 CNS): > 100 µM | TGI (SF-268 CNS): > 100 µM | GI50 (SNB-19 CNS): > 100 µM | TGI (SNB-19 CNS): > 100 µM | GI50 (OVCAR-4 ovarian): > 100 µM | TGI (OVCAR-4 ovarian): > 100 µM | GI50 (DU-145 prostate): > 87.3 µM | TGI (DU-145 prostate): > 100 µM | GI50 (SK-MEL-5 melanoma): 68.2 µM | TGI (SK-MEL-5 melanoma): > 100 µM | GI50 (UO-31 renal): 66.6 µM | TGI (UO-31 renal): > 100 µM | GI50 (NCI-H23 lung): > 100 µM | TGI (NCI-H23 lung): > 100 µM | GI50 (RXF 393 renal): 57 µM | TGI (RXF 393 renal): > 100 µM | GI50 (RPMI-8226 leukemia): 49.2 µM | TGI (RPMI-8226 leukemia): > 100 µM | GI50 (HS 578T breast): > 100 µM | TGI (HS 578T breast): > 100 µM | GI50 (HCT-116 colon): 42.9 µM | TGI (HCT-116 colon): > 100 µM | GI50 (SN12C renal): > 92.3 µM | TGI (SN12C renal): > 100 µM | GI50 (HOP-62 NSCLC): > 100 µM | TGI (HOP-62 NSCLC): > 100 µM | GI50 (MDA-MB-231 breast): > 74.3 µM | TGI (MDA-MB-231 breast): > 100 µM | GI50 (PC-3 prostate): > 100 µM | TGI (PC-3 prostate): > 100 µM | GI50 (SF-295 CNS): > 100 µM | TGI (SF-295 CNS): > 100 µM | GI50 (HL-60(TB) leukemia): > 42.3 µM | TGI (HL-60(TB) leukemia): > 100 µM | GI50 (SNB-75 CNS): 45.3 µM | TGI (SNB-75 CNS): > 100 µM | GI50 (A549 NSCLC): 60.8 µM | TGI (A549 NSCLC): > 100 µM | GI50 (A498 renal): 7.07 µM | TGI (A498 renal): 51.9 µM | GI50 (BT-549 breast): > 100 µM | TGI (BT-549 breast): > 100 µM | GI50 (UACC-257 melanoma): > 87 µM | TGI (UACC-257 melanoma): > 100 µM | GI50 (CCRF-CEM leukemia): > 100 µM | TGI (CCRF-CEM leukemia): > 100 µM | GI50 (IGROV1 ovarian): > 100 µM | TGI (IGROV1 ovarian): > 100 µM | GI50 (OVCAR-5 ovarian): 57.3 µM | TGI (OVCAR-5 ovarian): > 100 µM | GI50 (NCI/ADR-RES ovarian): > 100 µM | TGI (NCI/ADR-RES ovarian): > 100 µM | GI50 (EKVX NSCLC): > 100 µM | TGI (EKVX NSCLC): > 100 µM | GI50 (NCI-H226 lung): > 79.4 µM | TGI (NCI-H226 lung): > 100 µM | GI50 (SK-MEL-28 melanoma): > 58.2 µM | TGI (SK-MEL-28 melanoma): > 94 µM | GI50 (MDA-MB-435): > 100 µM | TGI (MDA-MB-435): > 100 µM | GI50 (OVCAR-3 ovarian): 32.8 µM | TGI (OVCAR-3 ovarian): 69.2 µM | GI50 (SW-620 colon): 52 µM | TGI (SW-620 colon): > 100 µM | GI50 (MOLT-4 leukemia): > 100 µM | TGI (MOLT-4 leukemia): > 100 µM | GI50 (NCI-H522 lung): 26.3 µM | TGI (NCI-H522 lung): 74.9 µM | GI50 (CAKI-1 renal): 71.9 µM | TGI (CAKI-1 renal): > 100 µM | GI50 (TK-10 renal): 27.3 µM | TGI (TK-10 renal): 66.2 µM | GI50 (T-47D breast): 15.2 µM | TGI (T-47D breast): 42.6 µM | GI50 (786-0 renal): > 100 µM | TGI (786-0 renal): > 100 µM | GI50 (UACC-62 melanoma): > 100 µM | TGI (UACC-62 melanoma): > 100 µM
